The text below walks through data of ChEMBL document CHEMBL5352382, “Synthesis and evaluation of imidazo[1,2-a]pyrazine derivatives as small molecule Gαq/11 inhibitors against uveal melanoma” (Eur J Med Chem, 2022).

The source made the active and inactive calls. The calls are words filed in the database; no cut-off is given here.

The target in series [1] is T1, GNAQ/GNA11 (Homo sapiens) (UniProt P50148+P29992). Briefly: Inhibition of Galphaq/11 (unknown origin) expressed in CHO-M1 cells at 10 uM preincubated for 1 hr followed by carbachol stimulation for 30 mins and measured after 1 hr by IP1 accumulation based HTRF assay relative to control. Format: cell-based. The following applies: time 150.0 min.
The subject of a further series is A-375. Put plainly: Antiproliferative activity against human A-375 cells assessed as reduction in cell viability at 10 uM measured after 72 hrs by CCK-8 method. Format: functional, cell-based.
The subject of the next series is SK-MEL-2. Put plainly: Antiproliferative activity against human SK-MEL-2 cells assessed as reduction in cell viability at 10 uM measured after 72 hrs by CCK-8 method. Format: functional, cell-based.
The test system of series [2] is MP41. Put plainly: Antiproliferative activity against human MP41 cells assessed as reduction in cell viability at 1.25 uM measured after 72 hrs by CCK-8 method. Format: functional, cell-based.
The test system of series [3] is 921. Put plainly: Antiproliferative activity against human 921 cells assessed as reduction in cell viability at 1.25 uM measured after 72 hrs by CCK-8 method. Format: functional, cell-based.
Series [4] relates to MP41. Briefly: Inhibition of colony formation in human MP41 cells assessed as inhibition of cell proliferation incubated for 14 days with replacement with fresh medium for every 3 days by crystal violet staining based analysis. Format: functional. To be noted: dose 1-5 µM, time 14.0 day.
Series [5] has as its system MP41. Put plainly: Inhibition of cell invasion in human MP41 cells measured after 48 hrs by crystal violet staining based Boyden chamber invasion assay. Format: functional. To be noted: dose 3-10 µM.
The subject of series [6] is MP41. Put plainly: Inhibition of cell migration in human MP41 cells incubated for 24 hrs by wound healing assay. Format: functional, cell-based. To be noted: dose 3-10 µM.
Series [7] addresses T2, Mitogen-activated protein kinase; ERK1/ERK2 (Homo sapiens) (UniProt P27361+P28482). Put plainly: Inhibition of ERK1/2 phosphorylation in human MP41 cells at 20 uM by Western blot analysis. Format: cell-based. The following applies: time <= 24.0 hrs, TDE = time-dependent effect.
Series [8] concerns the target Transcriptional coactivator YAP1 (Homo sapiens) (UniProt P46937). Put plainly: Activation of YAP phosphorylation in human MP41 cells at 20 uM by Western blot analysis. Format: cell-based. The following applies: filed as activator, time <= 24.0 hrs, TDE = time-dependent effect.
Series [9] deals with T2, Mitogen-activated protein kinase; ERK1/ERK2 (Homo sapiens). Put plainly: Inhibition of ERK1/2 phosphorylation in human MP41 cells incubated for 4 hrs by Western blot analysis. Format: cell-based. The following applies: dose 3-20 µM.
Series [10] shares this target. Put plainly: Inhibition of ERK1/2 phosphorylation in human MP41 cells incubated for 24 hrs by Western blot analysis. Format: cell-based. To be noted: dose 3-20 µM.
Series [11] deals with Transcriptional coactivator YAP1 (Homo sapiens) (UniProt P46937). Briefly: Activation of YAP phosphorylation in human MP41 cells incubated for 4 hrs by Western blot analysis. Format: cell-based. To be noted: filed as activator, dose 3-20 µM.
The target is the same in series [12]. Put plainly: Activation of YAP phosphorylation in human MP41 cells incubated for 24 hrs by Western blot analysis. Format: cell-based. The following applies: filed as activator, dose 3-20 µM.
The target of series [13] is T1, GNAQ/GNA11 (Homo sapiens). Put plainly: Binding affinity to Galphaq/11 (unknown origin) assessed as increase in thermal stability at 10 uM incubated for 1 hr by CETSA. Format: protein assay.
In series [14] the target is T3, Type-1 angiotensin II receptor (Homo sapiens) (UniProt P30556).
T3 sequence (whole entry): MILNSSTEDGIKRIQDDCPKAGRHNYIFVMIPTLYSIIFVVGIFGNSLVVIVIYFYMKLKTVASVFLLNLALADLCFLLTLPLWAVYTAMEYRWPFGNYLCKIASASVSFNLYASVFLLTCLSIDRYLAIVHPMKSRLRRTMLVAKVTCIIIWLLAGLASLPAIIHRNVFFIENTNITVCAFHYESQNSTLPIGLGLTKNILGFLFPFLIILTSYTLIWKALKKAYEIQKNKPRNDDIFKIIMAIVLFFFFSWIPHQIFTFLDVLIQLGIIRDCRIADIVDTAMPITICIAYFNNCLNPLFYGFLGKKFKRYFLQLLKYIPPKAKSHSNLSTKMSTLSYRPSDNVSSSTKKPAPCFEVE
Briefly: (§1) Inhibition of human AT1R expressed in HEK293 cells using […] incubated for 1 hr followed by addition of angiotensinII and substrate by BRET assay. Format: cell-based. To be noted: dose 0.3-100 µM.

For series [15], the system named is MP41. Briefly: Antiproliferative activity against human MP41 cells transfected with SiGNA11 assessed as reduction in cell viability measured after 72 hrs by CCK-8 method. Format: functional, cell-based. The following applies: dose <= 10.0 µM.
Series [16] in a line: Antiproliferative activity against human MP41 cells assessed as reduction in cell viability measured after 72 hrs by CCK-8 method. Format: functional, cell-based. The following applies: MP41, 72 h.
A short description of series [17]: Antiproliferative activity against human 921 cells assessed as reduction in cell viability measured after 72 hrs by CCK-8 method. Format: functional, cell-based. The following applies: Homo sapiens, 921, 72 h.
For series [18], the system named is MP41. Briefly: Antiproliferative activity against human MP41 cells assessed as reduction in cell viability at 10 uM measured after 72 hrs by CCK-8 method. Format: functional, cell-based.
Series [19] has as its system 921. Briefly: Antiproliferative activity against human 921 cells assessed as reduction in cell viability at 10 uM measured after 72 hrs by CCK-8 method. Format: functional, cell-based.
For series [20], the system named is MP41. Put plainly: Inhibition of colony formation in human MP41 cells assessed as inhibition of cell proliferation at 1 uM incubated for 14 days with replacement with fresh medium for every 3 days by crystal violet staining based analysis. Format: functional. To be noted: time 14.0 day.
Series [21] relates to MP41. Put plainly: Inhibition of cell migration in human MP41 cells at 1 uM incubated for 24 hrs by wound healing assay. Format: functional, cell-based.
Series [22] in a line: Aqueous solubility of the compound in deionized water at 25 degreeC by HPLC analysis. Format: physicochemical.
Series [23] is described as follows: Chemical stability of the compound assessed as compound remaining measured after 7 days by LC-MS analysis. Format: physicochemical. To be noted: time 7 day; read-out: Stability.
Series [24] can be described thus: Metabolic stability in human liver microsomes assessed as intrinsic clearance preincubated for 15 mins followed by NADPH addition and measured upto 45 mins by LC-MS/MS analysis. Format: ADME, Microsome. The following applies: time < 60 min, read-out: CLH.
A short description of series [25]: Metabolic stability in human liver microsomes assessed as half life preincubated for 15 mins followed by NADPH addition and measured upto 45 mins by LC-MS/MS analysis. Format: ADME, Microsome. The following applies: time < 60 min.
For a further series, the system named is HEK-293T. Put plainly: Cytotoxicity against HEK293T cells assessed as reduction in cell viability at 10 uM measured after 72 hrs by CCK-8 method. To be noted: human. Format: toxicity, cell-based.
The subject of a further series is BEAS-2B. Put plainly: Cytotoxicity against human BEAS-2B cells assessed as reduction in cell viability at 10 uM measured after 72 hrs by CCK-8 method. Format: toxicity, cell-based.
Series [26] deals with T4, Type-1 angiotensin II receptor (Homo sapiens, UniProt P30556).
T4 sequence (P30556 whole entry): T3 sequence (whole entry)
Described as §1. Format: cell-based.

Series [27] in a line: Inhibition of Galphaq (unknown origin) preincubated for 1 hr followed by carbachol stimulation for 30 mins and measured after 1 hr by IP1 accumulation based HTRF assay. Also noted: species or system Homo sapiens.

Sequence of Transcriptional coactivator YAP1 (Homo sapiens) (P46937 whole entry): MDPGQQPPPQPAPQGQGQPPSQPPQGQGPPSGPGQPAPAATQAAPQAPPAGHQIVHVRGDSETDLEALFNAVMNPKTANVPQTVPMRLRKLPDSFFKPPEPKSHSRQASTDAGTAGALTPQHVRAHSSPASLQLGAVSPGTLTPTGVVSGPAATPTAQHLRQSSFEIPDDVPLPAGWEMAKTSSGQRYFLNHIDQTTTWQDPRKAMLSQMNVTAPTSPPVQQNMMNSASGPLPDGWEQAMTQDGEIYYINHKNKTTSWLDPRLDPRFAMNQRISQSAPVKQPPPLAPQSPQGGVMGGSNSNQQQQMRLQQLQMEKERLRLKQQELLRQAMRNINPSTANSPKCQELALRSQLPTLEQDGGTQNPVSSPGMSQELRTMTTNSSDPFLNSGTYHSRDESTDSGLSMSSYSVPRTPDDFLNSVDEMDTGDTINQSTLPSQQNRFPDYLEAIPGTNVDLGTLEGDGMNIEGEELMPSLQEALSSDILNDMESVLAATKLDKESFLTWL
T2 sequence (P27361 whole entry, looked up): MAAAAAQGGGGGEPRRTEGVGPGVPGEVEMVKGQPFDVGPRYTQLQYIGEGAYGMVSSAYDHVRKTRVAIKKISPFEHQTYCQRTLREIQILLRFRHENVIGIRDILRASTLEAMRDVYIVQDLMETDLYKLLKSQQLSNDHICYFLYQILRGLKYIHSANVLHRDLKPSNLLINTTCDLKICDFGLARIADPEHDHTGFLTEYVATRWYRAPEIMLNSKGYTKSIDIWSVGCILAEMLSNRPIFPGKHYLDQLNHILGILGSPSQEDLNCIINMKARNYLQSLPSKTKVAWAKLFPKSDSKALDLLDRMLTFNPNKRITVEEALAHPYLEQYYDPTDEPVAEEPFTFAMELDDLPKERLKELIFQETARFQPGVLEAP
T2 sequence (P28482 whole entry, looked up): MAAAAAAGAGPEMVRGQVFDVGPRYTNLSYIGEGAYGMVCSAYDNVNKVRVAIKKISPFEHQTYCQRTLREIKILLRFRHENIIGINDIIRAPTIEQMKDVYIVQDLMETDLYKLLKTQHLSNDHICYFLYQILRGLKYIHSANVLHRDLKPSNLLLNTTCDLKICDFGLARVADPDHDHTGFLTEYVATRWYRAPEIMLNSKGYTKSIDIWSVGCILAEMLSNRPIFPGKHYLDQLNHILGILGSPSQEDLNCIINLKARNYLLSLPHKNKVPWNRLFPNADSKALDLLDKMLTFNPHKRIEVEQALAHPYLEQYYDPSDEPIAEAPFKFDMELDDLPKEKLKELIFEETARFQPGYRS

With `CC[C@H](C)[C@H](N)C(=O)N1CCn2cc(-c3ccc4c(c3)CCCC4)nc2[C@@H]1CC1CCCCC1` [listing 1 of 2 here], the inhibition is 18.3% in series [1]; “Dose-Dependent Effect” with MP41 [4]; “Dose-Dependent Effect” with MP41 [5]; “Dose-Dependent Effect” in the series on MP41 [6]; “Tde” in series [7]; “Dose-Dependent Effect” in [9]. The inhibition result in series [10] and in series [14] was “Dose-Dependent Effect” in each case. Besides, the outcome in the series with A-375 and with SK-MEL-2 was inactive. Moreover, the outcome (in the series with MP41 [2]; in the series with 921 [3]; in series [13]) was Active. The Activity result was “Tde” in series [8], “Dose-Dependent Effect” in series [11], “Dose-Dependent Effect” in [12] and “Dose-Dependent Effect” in the series on MP41 [15].
`N[C@@H](CSSC[C@H](N)C(=O)N1CCn2cc(-c3ccccc3)nc2[C@@H]1CC1CCCCC1)C(=O)N1CCn2cc(-c3ccccc3)nc2[C@@H]1CC1CCCCC1`: the inhibition in series [1] came out at 10.9%. Moreover, the 50% inhibitory concentration (IC50) in [16] was 10.2 µM; in [17], 14.3 µM. Further, the result in the series on A-375, in the series on SK-MEL-2, in the series on MP41 [18] and with 921 [19] was Active. Besides, the inhibition entry in the series with MP41 [20] and in the series with MP41 [21] was “Active” each time.
The compound `CC[C@H](C)[C@H](N)C(=O)N1CCn2cc(-c3ccc4c(c3)CCCC4)nc2[C@@H]1CC1CCCCC1.O=C(O)C(F)(F)F` displayed a solubility in series [22] of 9190 µg/mL. The remaining at 168 h in series [23] is 98.5%. Also, the CLint scaled in series [24] is 16.4 mL/min/kg. Further, the half-life in [25] amounted to 1.77 h.
On to `CC[C@H](C)[C@H](N)C(=O)N1CCn2cc(-c3ccc4c(c3)CCCC4)nc2[C@@H]1CC1CCCCC1` [listing 2 of 2 here], for which the half-inhibitory concentration (IC50) stood at 3.5 µM in series [16], 6.8 µM in [17], 8.9 µM in series [26] and 23 µM in [27]. In addition, the Activity entry in the series on HEK-293T and with BEAS-2B was “Non-Toxic” in each case.
